The record followed here is US20050004037A1, “Osteogenic growth oligopeptides as stimulants of hematopoiesis” (Yissum Research Development Company of the Hebrew …, priority 2001, published 2005).

The test system of data set [1] is white blood cells, monocytes, immature cells. Put plainly: Total and differential blood cell counts after cyclophosphamide (CFA) chemoablation. Type of data set: in vivo, mice. The note with it: CFA-induced aplasia. The procedure:
FIGS. 2A-C—OGP(10-14) stimulates blood cell counts in dose and time dependent manner in mice undergoing chemoablation of hematopoietic tissues Male ICR mice weighing 25 gm each were subjected to chemoablation using cyclophosphamide (CFA), 5 mg/mouse, injected intraperitoneally on days 0 and 1, one injection each day. OGP(10-14) was dissolved in “sterile water for injection” and 0.1 ml of the indicated doses or water only (vehicle) was administered subcutaneously in the nape daily from day −7 to day −1 and from day +2 to day +8. Data are mean±SD obtained in 20 animals per condition. *: significant over CFA+vehicle, p<0.05; **: significant over 1 nmol OGP(10-14) group, p<0.05.
In this set of experiments bone marrow ablation was induced by an intraperitoneal injection of cyclophophamide (CFA, SIGMA, 5 mg/mouse in 150 (1 sterile PBS) for two consecutive days (designated “day 0” and “day 1”. This protocol has been demonstarted to induce severe, reversible leucopoena with L. D. <30 [Spangrude, G. J. et al, Science, 241:58 (1988)]. The lowest bone marrow cell counts were recorded six days after the first injection. […]

A short description of data set [2]: Evaluation of OGP(10-14) toxicity after 15 days of subcutaneous administration. Type of data set: in vivo, mice. The note with it: 10 nmol/mouse s.c., versus placebo-treated controls. The method, then: Fifty-five mice were evaluated for possible OGP(10-14)-related toxicity after 15 days of subcutaneous administration, at the dose of 10 nmol/mouse, and results were compared to those obtained in 30 placebo-treated controls.

The test system of data set [3] is CFU-GM, CFU-GEMM and BFU-E. Put plainly: Ex vivo progenitor cell (colony forming) assays on bone marrow of treated chemoablated mice. Type of data set: in vivo. As to conditions: bone marrow of CFA-ablated mice, 10 nmol/day s.c. The method, then:
Male ICR mice weighing 25 gm each were subjected to chemoablation using cyclophosphamide (CFA), 5 mg/mouse, injected intraperitoneally on days 0 and 1, one injection each day. OGP(10-14) was dissolved in “sterile water for injection” at 100 nmol/ml concentration and 0.1 ml of this solution or water only (vehicle) was administered subcutaneously in the nape daily for the indicated period(s). Bone marrow was harvested on day 9 and analyzed for colony forming units. Data are meam±SD obtained in 10 animals per condition.
To evaluate different dosing regimens of OGP(10-14), chemoablated mice were subjected to daily treatment with OGP(10-14), as outlined in FIG. 4. The mice were sacrificed on day +15, the femoral bone marrow was flushed and single cell suspensions (prepared as above) were subjected to ex vivo progenitor cell (colony forming) assays. The OGP(10-14) effect on the formation of CFU-GM, CFU-GEMM and BFU-E was compared to that of G-CSF (FIG. 4).
Bone marrow cells were recovered on day +10 after injection of CFA from all groups. Cells were diluted to 2×10^6/ml in Iscove's Modified Dulbecco Medium(IMFM) with 2% FBS and added to methylcellulose medium according to the manufacturer's recommendations (MethoCult, StemCell Technologies Inc., Vancouver, Canada). 2×10^4 cells were plated in each test. Both M3434 (for murine GM-CFU, and GEMM-CFU) and M3334 for (murine BFU-E assay) were used. M3434 was supplemented with recombinant murine interleukine-3 (rmIL-3, 10 ng/ml), recombinant human interleukine-6 (rhIL-6, 10 ng/ml), recombinant murine stem cell factor (rmSCF, 50 ng/ml) and recombinant human erythropoietin (rhEpo, 3 U/ml). […] the only factor included was Epo. Duplicate tests for each mouse were blindly examined after 14 days of incubation according to the protocol procedures.

Setting [4] is: OGP(10-14) effect only where treatment began 7 days before chemoablation.

Ends that are not written are not given here.

As to YGFGG [OGP(10-14), Tyr-Gly-Phe-Gly-Gly], the “toxicity at the employed doses” value in data set [1] is “without any valuable toxicity”. Further, in data set [2], the “haematological parameters: number of WBC, RBC, PLT, Hb level” value is “did not induce any significant modifications”; the “survival, behaviour, body weight gain and gross examination” value is given as “No differences were found”.

B1: G-CSF: granulocyte colony-stimulating factor, positive reference (protein, UniProt P09919 31-207, looked up)
Granulocyte …: TPLGPASSLPQSFLLKCLEQVRKIQGDGAALQEKLVSECATYKLCHPEELVLLGHSLGIPWAPLSSCPSQALQLAGCLSQLHSGLFLYQGLLQALEGISPELGPTLDTLQLDVADFATTIWQQMEELGMAPALQPTQGAMPAFASAFQRRAGGVLVASHLQSFLEVSYRVLRHLAQP
Take B1: the CFU-GM entry in data set [3] was “had an effect”. In data set [3] (setting [4]), the BFU-E entry is listed as “effect only on the CFU-GM” and the CFU-GEMM result was “effect only on the CFU-GM”.
